From article PMC5607165, “Synthesis of UDP-apiose in Bacteria: The marine phototroph Geminicoccus roseus and the plant pathogen Xanthomonas pisi” (PLoS ONE, 2017)

T1: XpUAS (Xanthomonas pisi, UniProt A0A291B0F1)
T1 construct: gene XpiCFBP4643_06440
T1 sequence (A0A291B0F1 1-375): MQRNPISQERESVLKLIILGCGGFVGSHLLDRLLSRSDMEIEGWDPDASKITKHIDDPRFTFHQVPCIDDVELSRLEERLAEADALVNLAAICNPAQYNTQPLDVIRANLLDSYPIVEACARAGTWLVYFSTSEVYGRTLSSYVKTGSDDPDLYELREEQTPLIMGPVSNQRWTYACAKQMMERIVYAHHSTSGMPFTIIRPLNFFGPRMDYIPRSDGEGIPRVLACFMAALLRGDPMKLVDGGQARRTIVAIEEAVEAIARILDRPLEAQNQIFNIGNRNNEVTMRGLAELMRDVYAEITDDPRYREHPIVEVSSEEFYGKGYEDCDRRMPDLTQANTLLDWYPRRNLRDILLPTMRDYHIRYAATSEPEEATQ

B1: GrUAS (Geminicoccus roseus) (protein)
chain: MRVVILGCGGFVGSHLLDNLLRDESYLIEGWDPEDRKIRQHLDNPRFTLHRSIANAPEALVEVERAIRECDVVVNLAAICNPADYNTRPLSVIRANLFEVYPIVELCAKYKRWLVSFSTSETYGRTIASYLPAGTYDDPELYELREDETPLIMGPIRNQRWTYACAKQMTERLIYAHHDEEGLPFTIIRPLNFFGPRMDYIPTRDGDGVPRVLACFMAALLSGEPMQLVDGGQARRTIVSIYEAVDAIRRVLERPETSQNQIFNIGNPNNEVTIAELADAMRRTYARITGDARYNDHPIVVTTADAFYGAGYEDCDRRMPDISKAERLLGWVPRMSLAEVLYGTMQSYHDTYTAPKAA

biological target: T2, CeUAS (Candidatus Entotheonella factor, UniProt W4LSK8); assay: HILIC-ESI-MS/MS and 1H NMR of products; type: biochemical; conditions: 1 mM NAD+, 1 mM UDP-GlcA, 50 mM Tris-HCl pH 7.9, 37 °C; products UDP-apiose and UDP-xylose
T2 construct: gene ETSY1_09345
T2 sequence (W4LSK8 entry or part of it): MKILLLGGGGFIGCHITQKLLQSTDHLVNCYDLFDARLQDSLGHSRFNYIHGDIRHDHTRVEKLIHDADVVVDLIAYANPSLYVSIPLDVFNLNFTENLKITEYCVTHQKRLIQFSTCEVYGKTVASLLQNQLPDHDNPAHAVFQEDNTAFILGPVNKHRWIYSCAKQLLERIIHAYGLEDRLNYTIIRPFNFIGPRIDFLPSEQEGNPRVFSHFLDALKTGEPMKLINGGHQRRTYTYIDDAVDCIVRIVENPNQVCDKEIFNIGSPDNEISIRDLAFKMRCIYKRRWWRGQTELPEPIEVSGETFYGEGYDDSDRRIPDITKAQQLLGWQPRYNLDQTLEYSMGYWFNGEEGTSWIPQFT

Molecule | HILIC-ESI-MS/MS and 1H NMR of products
O=C(O)[C@H]1O[C@H](OP(=O)(O)OP(=O)(O)OC[C@H]2O[C@@H](n3ccc(=O)[nH]c3=O)[C@H](O)[C@@H]2O)[C@H](O)[C@@H](O)[C@@H]1O [UDP-GlcA] | Each purified UAS was shown by HILIC-ESI-MS/MS to convert UDP-GlcA to two UDP-pentose products

biological target: T1, XpUAS; assay: HILIC-ESI-MS/MS and 1H NMR of products; type: biochemical; conditions: 1 mM NAD+, 1 mM UDP-GlcA, 50 mM Tris-HCl pH 7.9, 37 °C; products UDP-apiose and UDP-xylose

Molecule | HILIC-ESI-MS/MS and 1H NMR of products
O=C(O)[C@H]1O[C@H](OP(=O)(O)OP(=O)(O)OC[C@H]2O[C@@H](n3ccc(=O)[nH]c3=O)[C@H](O)[C@@H]2O)[C@H](O)[C@@H](O)[C@@H]1O [UDP-GlcA] | Each purified UAS was shown by HILIC-ESI-MS/MS to convert UDP-GlcA to two UDP-pentose products

biological target: GrUAS (Geminicoccus roseus, UniProt A0A291B0F6); assay: HPLC, UDP-GlcA consumption with additive; type: biochemical; conditions: 1 mM UDP-GlcA, 1 mM NAD+, 50 mM Tris-HCl pH 7.9, 37 °C; additive concentration not given; residual activity versus water
Text: HPLC, UDP-GlcA consumption with additive on GrUAS

Relative activity (%)^a [%] | Molecule
94.3 ± 3.7 | Nc1nc2c(ncn2[C@@H]2O[C@H](COP(=O)(O)O)[C@@H](O)[C@H]2O)c(=O)[nH]1 [GMP]
33.4 ± 9.5 | O=C(O)[C@H]1O[C@H](OP(=O)(O)OP(=O)(O)OC[C@H]2O[C@@H](n3ccc(=O)[nH]c3=O)[C@H](O)[C@@H]2O)[C@H](O)[C@@H](O)[C@H]1O [UDP-galacturonic acid]
88.5 ± 5.6 | O=c1ccn([C@@H]2O[C@H](COP(=O)(O)OP(=O)(O)O[C@H]3OC[C@H](O)[C@H](O)[C@H]3O)[C@@H](O)[C@H]2O)c(=O)[nH]1 [UDP-arabinose]
85.3 ± 4.6 | Nc1ccn([C@@H]2O[C@H](COP(=O)(O)OP(=O)(O)O)[C@@H](O)[C@H]2O)c(=O)n1 [CDP]
105.3 ± 1.9 | NC(=O)C1=CN([C@@H]2O[C@H](COP(=O)(O)OP(=O)(O)OC[C@H]3O[C@@H](n4cnc5c(N)ncnc54)[C@H](O)[C@@H]3O)[C@@H](O)[C@H]2O)C=CC1 [NADH]
79.6 ± 3.3 | NC(=O)c1ccc[n+]([C@@H]2O[C@H](COP(=O)(O)OP(=O)(O)OC[C@H]3O[C@@H](n4cnc5c(N)ncnc54)[C@H](OP(=O)(O)O)[C@@H]3O)[C@@H](O)[C@H]2O)c1 [NADP]
91.4 ± 5.6 | O=c1ccn([C@@H]2O[C@H](COP(=O)(O)OP(=O)(O)O[C@H]3OC[C@@H](O)[C@H](O)[C@H]3O)[C@@H](O)[C@H]2O)c(=O)[nH]1 [UDP-xylose]
72.6 ± 5.5 | O=c1ccn([C@@H]2O[C@H](COP(=O)(O)OP(=O)(O)O)[C@@H](O)[C@H]2O)c(=O)[nH]1 [UDP]
92.6 ± 5.0 | O=c1ccn([C@@H]2O[C@H](COP(=O)(O)O)[C@@H](O)[C@H]2O)c(=O)[nH]1 [UMP]
93.8 ± 4.5 | Nc1ccn([C@@H]2O[C@H](COP(=O)(O)O)[C@@H](O)[C@H]2O)c(=O)n1 [CMP]
87.9 ± 4.9 | Cc1cn([C@H]2C[C@H](O)[C@@H](COP(=O)(O)O)O2)c(=O)[nH]c1=O [TMP]
85.2 ± 7.9 | Nc1nc2c(ncn2[C@@H]2O[C@H](COP(=O)(O)OP(=O)(O)O)[C@@H](O)[C@H]2O)c(=O)[nH]1 [GDP]
82.6 ± 0.9 | NC(=O)C1=CN([C@@H]2O[C@H](COP(=O)(O)OP(=O)(O)OC[C@H]3O[C@@H](n4cnc5c(N)ncnc54)[C@H](OP(=O)(O)O)[C@@H]3O)[C@@H](O)[C@H]2O)C=CC1 [NADPH]
85.0 ± 4.8 | Cc1cn([C@H]2C[C@H](O)[C@@H](COP(=O)(O)OP(=O)(O)O)O2)c(=O)[nH]c1=O [TDP]

biological target: Geminicoccus roseus UDP-apiose/UDP-xylose synthase (GrUAS), recombinant His6-tagged (Geminicoccus roseus); assay: SEC; Superdex75 gel filtration of purified recombinant GrUAS; mass estimated from the elution times of standard protein markers; activity of the fractions determined by HPLC; method as previously described [31]; conditions: not given

stoichiometry N | Molecule
2 | Geminicoccus roseus UDP-apiose/UDP-xylose synthase (GrUAS), recombinant His6-tagged (enzyme)

substrate: O=C(O)[C@H]1O[C@H](OP(=O)(O)OP(=O)(O)OC[C@H]2O[C@@H](n3ccc(=O)[nH]c3=O)[C@H](O)[C@@H]2O)[C@H](O)[C@@H](O)[C@@H]1O; assay: HPLC anion exchange, UDP-GlcA depletion; type: biochemical, Geminicoccus roseus; conditions: 1 mM NAD+, 50 mM Tris-HCl pH 7.9, 37 °C, 7 min
Text: HPLC anion exchange, UDP-GlcA depletion on GrUAS

Molecule | Km [µM] | Vmax [µM/min]
B1 | 251 ± 44.6 | 4.22
